Results from paper PMC6764326, “The Trials and Tribulations of Structure Assisted Design of KCa Channel Activators” (Frontiers in Pharmacology, 2019).

Key:
KCa3.1 = target: T1, KCa3.1 (Homo sapiens, UniProt O15554+P0DP23); experiment: QPatch automated whole-cell patch-clamp screen, 10 µM activator normalized to 10 µM SKA-31; format: cell-based; conditions: for Whole-cell KCa3.1 response elicited by 10 µM of activator normalized to 10 µM SKA-31 (described in words): 250 nM free internal Ca2+, HEK cells stably expressing channel; for Selectivity between KCa3.1 and KCa2.2 in the 10 µM screen: KCa3.1 versus KCa2.2, 250 nM free Ca2+
T1 construct: expressed in transfected cells
Description: (§1) All experiments were performed in either the inside-out or the whole-cell configuration of the patch-clamp technique on either transiently transfected CHO cells or Human Embryonic Kidney (HEK) cell lines stably expressing hKCa3.1 or hKCa2.2 ([Sankaranarayanan et al., 2009]). All cells were cultured in Dulbecco’s modified Eagle’s medium supplemented with 10% fetal calf serum. Wild-type (WT) and mutant hKCa3.1 channel constructs were transfected using FuGENE 6 transfection reagent (Promega, Madison, WI) in OptiMEM reduced-serum medium (Life Technologies, Benicia, CA) for manual patch-clamp experiments or via electroporation (Nucleofector 2b and Lonza Amaxa Cell Line Nucleofector Kit T) according to the manufacturer’s instructions for automated electrophysiology.
(§2) The procedure for performing automated whole-cell KCa channel recordings on a QPatch-16 automated electrophysiology platform (Sophion Biosciences) was previously described in detail by our laboratory ([Jenkins et al., 2013]). For the current study we used the solutions described above with disposable 16-channel planar patch chip plates (QPlates; patch hole diameter […], resistance 2.00–0.02MΩ, Sophion Biosciences, Woburn, MA). Cell positioning and sealing parameters were set as follows: positioning pressure -70 mbar, resistance increase for success 750%, minimum seal resistance 0.1 GΩ, holding potential -0 mV, holding pressure -20 mbar. To avoid rejection of cells with large KCa3.1 currents, the minimum seal resistance for whole-cell requirement was lowered to 0.001 GΩ. Access was obtained with the following sequence: 1) suction pulses in 29 mbar increments from -250 mbar to -453 mbar; 2) a suction ramp of an amplitude of -450 mbar; 3) -400 mV voltage zaps of 1 ms duration. Following establishment of the whole-cell configuration, cells were held at -80 mV and KCa currents elicited by a voltage protocol that held at -80 mV for 20 ms, stepped to -120 mV for 20 ms, ramped from -120 to + 40 mV in 200 ms, and then stepped back to -120 mV for 20 ms. This pulse protocol was applied every 10 s. KCa activator dilutions were prepared freshly (within 5 min of the initiation of the QPatch) with Ringer’s solution from 10 mM stock solutions in dry DMSO. Final DMSO concentrations never exceeded 1%. Glass vial inserts (to avoid adsorption) were filled with 400 µL of compound solution and placed into the insert base plate for use in the QPatch assay. Exemplary QPatch raw current traces and plots of slope conductance versus time are shown in Supplementary Figure 3 . For each compound we typically used 12 consecutive liquid periods Break-in, 3 saline additions to stabilize the current, 2 additions of test compound at 10 µM, 2 saline washes, 2 additions of SKA-31 at 10 µM, followed by 2 more saline washes. In each liquid period 10 pulse protocols were run.
(§3) The newly synthesized compounds were tested by automated whole-cell patch-clamp for their ability to activate KCa2.2 and KCa3.1 channels stably expressed in HEK cells. […] A promising compound would ideally do both. […] We started by comparing the effect of the SKA-74 derivatives to SKA-31 ( Figure 4A ).
(§4) Figure 4 Whole-cell KCa3.1 and KCa2.2 responses elicited by 10 µM of activator and normalized to 10 µM of the mixed activator SKA-31. Experiments were performed by automated electrophysiology with 250 nM of free internal Ca^2+. In each experiment the new activator was tested first, washed out with 2 saline additions, and then SKA-31 was applied as positive control for normalization of the response. (A) Screening of SKA-74 derivatives. (B) Screening of SKA-75 and SKA-76 derivatives. The bar graphs show means ± SD of the slope conductance measured between −85 and −65 mV (n = 2–7 cells). Chemical structures are shown below the bar graphs.
(§5) Figure 5 Whole-cell KCa3.1 and KCa2.2 responses elicited by 10 µM of activator and normalized to 10 µM of the mixed activator SKA-31. […]

KCa2.2 = target: T2, KCa2.2 (Homo sapiens, UniProt P0DP23+Q9H2S1); experiment: as above; format: cell-based; conditions: 250 nM free internal Ca2+, HEK cells stably expressing channel
T2 construct: expressed in transfected cells
Description: as §1, §2, §3, §4, §5

Compound	melting point [°C]	Whole-cell KCa3.1 response elicited by 10 µM of activator normalized to 10 µM SKA-31 (described in words) (KCa3.1)	Selectivity between KCa3.1 and KCa2.2 in the 10 µM screen (KCa3.1)	Whole-cell KCa2.2 response elicited by 10 µM of activator normalized to 10 µM SKA-31 (described in words) (KCa2.2)
CN(C)c1cc2sc(N)nc2c2ccccc12 [SKA-331, N^5,N^5-Dimethylnaphtho[1,2-d]thiazole-2,5-diamine]	171 to 174	roughly as potent	as KCa3.1 selective as SKA-111	–
Cc1nc2c(cc(Cl)c3ccccc32)s1 [SKA-130, 5-Chloro-2-methylnaphtho[1,2-d]thiazole]	–	–	preserved selectivity for KCa3.1	decreased activity
Cc1ccn(-c2cc3sc(N)nc3c3ccccc23)n1 [SKA-340, 5-(3-Methyl-1H-pyrazol-1-yl)naphtho[1,2-d]thiazol-2-amine]	189 to 190	–	–	–
Cc1nc2c(ccc3cccc(N)c32)s1 [SKA-178, 2-Methylnaphtho[1,2-d]thiazol-9-amine]	87 to 88	–	preserved the selectivity for KCa3.1	–
Cc1nc2c(ccc3c(N)cccc32)s1 [SKA-172, 2-Methylnaphtho[1,2-d]thiazol-6-amine]	–	–	preserved the selectivity for KCa3.1	–
Cc1ccc(-c2csc(N)n2)c2ccccc12 [SKA-190, 4-(4-Methylnaphthalen-1-yl)thiazol-2-amine]	–	somewhat increased KCa channel activating potency	–	somewhat increased KCa channel activating potency
Nc1nc(-c2ccc3ccccc3c2)c(Br)s1 [SKA-220, 5-Bromo-4-(naphthalen-2-yl)thiazol-2-amine]	–	somewhat increased KCa channel activating potency	–	somewhat increased KCa channel activating potency
c1ccc2c(c1)ccc1sc(NC3CCCCC3)nc12 [SKA-165, N-Cyclohexylnaphtho[1,2-d]thiazol-2-amine]	–	completely eliminated activity	–	completely eliminated activity
Nc1nc2c(cc(-n3cncn3)c3ccccc32)s1 [SKA-347, 5-(1H-1,2,4-Triazol-1-yl)naphtho[1,2-d]thiazol-2-amine]	273	–	–	–
CCCc1cc2sc(N)nc2c2ccccc12 [SKA-307, 5-Propylnaphtho[1,2-d]thiazol-2-amine]	147 to 150	roughly as potent	as KCa3.1 selective as SKA-111	–
Cc1nc2c(ccc3cccc([N+](=O)[O-])c32)s1 [SKA-216, 2-Methyl-9-nitronaphtho[1,2-d]thiazole]	151 to 152	–	preserved the selectivity for KCa3.1	–
Nc1nc2c(cc(-c3ccccc3)c3ccccc32)s1 [SKA-326, 5-Phenylnaphtho[1,2-d]thiazol-2-amine]	177 to 178	–	–	–
Nc1nc2c(cc(-n3ccnn3)c3ccccc32)s1 [SKA-339, 5-(1H-1,2,3-Triazol-1-yl)naphtho[1,2-d]thiazol-2-amine]	208	–	–	–
CC(C)c1cc2sc(N)nc2c2ccccc12 [SKA-308, 5-Isopropylnaphtho[1,2-d]thiazol-2-amine]	179 to 181	roughly as potent	as KCa3.1 selective as SKA-111	–
CNc1nc2c(cc(C)c3ccccc32)s1 [SKA-204, N,5-Dimethylnaphtho[1,2-d]thiazol-2-amine]	172 to 173	–	–	–
Nc1nc(-c2ccc(-c3ccccc3)cc2)cs1 [SKA-232, 4-Biphenyl-4-yl-thiazol-2-ylamine]	–	completely devoid of activity	–	completely devoid of activity
Cc1cnn(-c2cc3sc(N)nc3c3ccccc23)c1 [SKA-345, 5-(4-Methyl-1H-pyrazol-1-yl)naphtho[1,2-d]thiazol-2-amine]	249	–	–	–
Nc1nc2cc3ccccc3cc2o1 [SKA-134, Naphtho[2,3-d]oxazol-2-amine]	247 to 248	–	–	–
Cc1nccn1-c1cc2sc(N)nc2c2ccccc12 [SKA-344, 5-(2-Methyl-1H-imidazol-1-yl)naphtho[1,2-d]thiazol-2-amine]	264 to 265	–	–	–
c1ccc(-c2csc(Nc3ccccn3)n2)cc1 [SKA-265, 4-Phenyl-N-(pyridin-2-yl)thiazol-2-amine]	–	completely devoid of activity	–	completely devoid of activity
Cc1cn(-c2cc3sc(N)nc3c3ccccc23)cn1 [SKA-343, 5-(4-Methyl-1H-imidazol-1-yl)naphtho[1,2-d]thiazol-2-amine]	269 to 271	–	–	–
5,6-Dinitronaphtho[1,2-d]thiazol-2-amine [SKA-218]	–	–	preserved the selectivity for KCa3.1	–
2-Aminonaphtho[1,2-d]oxazole-5-sulfonic acid [SKA-128]	–	drastically reduced potency	–	drastically reduced potency
Nc1nc2c(cc(-n3cccn3)c3ccccc32)s1 [SKA-335, 5-(1H-Pyrazol-1-yl)naphtho[1,2-d]thiazol-2-amine]	226 to 227	–	–	–
Nc1nc2c(cc(-n3ccc(C(F)(F)F)n3)c3ccccc32)s1 [SKA-341, 5-(3-(Trifluoromethyl)-1H-pyrazol-1-yl)naphtho[1,2-d]thiazol-2-amine]	206 to 207	–	–	–
Nc1ncc(-c2ccc(-c3ccc(-c4cnc(N)s4)cc3)cc2)s1 [SKA-255, Bis-4,4’-(2-amino-4-thiazolyl)biphenyl]	–	completely devoid of activity	–	completely devoid of activity
CCc1cc2sc(N)nc2c2ccccc12 [SKA-306, 5-Ethylnaphtho[1,2-d]thiazol-2-amine]	144 to 145	roughly as potent	as KCa3.1 selective as SKA-111	–
Nc1nc2c(cc(-n3ccnc3)c3ccccc32)s1 [SKA-334, 5-(1H-Imidazol-1-yl)naphtho[1,2-d]thiazol-2-amine]	272 to 275	–	–	–
